Numbered stars: 1 amine (or outer) side, 2 acyl side, 3 side chain; on linkers, the order of the positions; unused ones are H or OH. Side chains are listed from the residue outwards. Peptide text beside a SMILES is read from it. * marks the point of attachment. ξ: configuration not given here. Desaminohistidyl = O=C(CCc1c[nH]cn1)*; ξγGlu = O=C(O)C(CCC(=O)[*:2])N[*:1]; Palmitoyl = CCCCCCCCCCCCCCCC(=O)*; Octanoyl = CCCCCCCC(=O)*
target: Glucagon-like peptide 1 receptor (Homo sapiens, UniProt P43220); assay: Potency measured using recombinant human GLP-1 receptor expressed in Baby Hamster Kidney (BHK)cells; type: cell-based
Sequence (P43220 whole entry): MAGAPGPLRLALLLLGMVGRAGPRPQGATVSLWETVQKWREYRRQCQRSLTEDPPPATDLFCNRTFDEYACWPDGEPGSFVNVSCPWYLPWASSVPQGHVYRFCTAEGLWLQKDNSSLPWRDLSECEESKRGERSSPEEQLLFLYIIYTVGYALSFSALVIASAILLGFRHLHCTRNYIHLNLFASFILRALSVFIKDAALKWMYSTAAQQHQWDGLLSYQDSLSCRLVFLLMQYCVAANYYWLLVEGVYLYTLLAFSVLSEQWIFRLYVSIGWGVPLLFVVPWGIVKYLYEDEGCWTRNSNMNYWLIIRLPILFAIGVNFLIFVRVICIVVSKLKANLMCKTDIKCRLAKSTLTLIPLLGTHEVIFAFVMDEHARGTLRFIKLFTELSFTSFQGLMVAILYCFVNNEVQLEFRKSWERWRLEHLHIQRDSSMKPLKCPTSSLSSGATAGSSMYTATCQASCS

EC50	Compound
1.26 nM	CCCCCCCCCCCCCCCC(=O)NC(CCC(=O)NCCCC[C@H](NC(=O)[C@@H](N)Cc1c[nH]cn1)C(=O)N[C@@H](CCC(=O)O)C(=O)NCC(=O)N[C@H](C(=O)N[C@@H](Cc1ccccc1)C(=O)N[C@H](C(=O)N[C@@H](CO)C(=O)N[C@@H](CC(=O)O)C(=O)N[C@H](C(=O)N[C@@H](CO)C(=O)N[C@@H](CO)C(=O)N[C@@H](Cc1ccc(O)cc1)C(=O)N[C@@H](CC(C)C)C(=O)N[C@@H](CCC(=O)O)C(=O)NCC(=O)N[C@@H](CCC(N)=O)C(=O)N[C@@H](C)C(=O)N[C@@H](C)C(=O)N[C@@H](CCCN=C(N)N)C(=O)N[C@@H](CCC(=O)O)C(=O)N[C@@H](Cc1ccccc1)C(=O)N[C@H](C(=O)N[C@@H](C)C(=O)N[C@@H](Cc1c[nH]c2ccccc12)C(=O)N[C@@H](CC(C)C)C(=O)N[C@H](C(=O)N[C@@H](CCCN=C(N)N)C(=O)NCC(=O)N[C@@H](CCCN=C(N)N)C(=O)NCC(=O)O)C(C)C)[C@@H](C)CC)C(C)C)[C@@H](C)O)[C@@H](C)O)C(=O)O (stereo not given in full)
0.053 nM	CCCCCCCCCCCCCCCC(=O)NC(CCC(=O)NCCCCC(NC(=O)CNC(=O)[C@H](CCCN=C(N)N)NC(=O)CNC(=O)[C@H](CCCN=C(N)N)NC(=O)[C@@H](NC(=O)[C@H](CC(C)C)NC(=O)[C@H](Cc1c[nH]c2ccccc12)NC(=O)[C@H](C)NC(=O)[C@@H](NC(=O)[C@H](Cc1ccccc1)NC(=O)[C@H](CCC(=O)O)NC(=O)[C@H](CCCN=C(N)N)NC(=O)[C@H](C)NC(=O)[C@H](C)NC(=O)[C@H](CCC(N)=O)NC(=O)CNC(=O)[C@H](CCC(=O)O)NC(=O)[C@H](CC(C)C)NC(=O)[C@H](Cc1ccc(O)cc1)NC(=O)[C@H](CO)NC(=O)[C@H](CO)NC(=O)[C@@H](NC(=O)[C@H](CC(=O)O)NC(=O)[C@H](CO)NC(=O)[C@@H](NC(=O)[C@H](Cc1ccccc1)NC(=O)[C@@H](NC(=O)CNC(=O)[C@H](CCC(=O)O)NC(=O)[C@H](C)NC(=O)[C@@H](N)Cc1c[nH]cn1)[C@@H](C)O)[C@@H](C)O)C(C)C)[C@@H](C)CC)C(C)C)C(=O)O)C(=O)O (stereo not given in full)
0.0272 nM	CCCCCCCCCCCCCCCC(=O)NC(CCC(=O)NCCCCC(NC(=O)[C@H](CCC(=O)O)NC(=O)[C@H](CCCN=C(N)N)NC(=O)CNC(=O)[C@H](CCCN=C(N)N)NC(=O)[C@@H](NC(=O)[C@H](CC(C)C)NC(=O)[C@H](Cc1c[nH]c2ccccc12)NC(=O)[C@H](C)NC(=O)[C@@H](NC(=O)[C@H](Cc1ccccc1)NC(=O)[C@H](CCC(=O)O)NC(=O)[C@H](CCCN=C(N)N)NC(=O)[C@H](C)NC(=O)[C@H](C)NC(=O)[C@H](CCC(N)=O)NC(=O)CNC(=O)[C@H](CCC(=O)O)NC(=O)[C@H](CC(C)C)NC(=O)[C@H](Cc1ccc(O)cc1)NC(=O)[C@H](CO)NC(=O)[C@H](CO)NC(=O)[C@@H](NC(=O)[C@H](CC(=O)O)NC(=O)[C@H](CO)NC(=O)[C@@H](NC(=O)[C@H](Cc1ccccc1)NC(=O)[C@@H](NC(=O)CNC(=O)[C@H](CCC(=O)O)NC(=O)[C@H](C)NC(=O)[C@@H](N)Cc1c[nH]cn1)[C@@H](C)O)[C@@H](C)O)C(C)C)[C@@H](C)CC)C(C)C)C(=O)O)C(=O)O (stereo not given in full)
0.115 nM	CCCCCCCCCCCCCCCCCC(=O)NC(CCC(=O)NCCCCC(NC(=O)CNC(=O)[C@H](CCCN=C(N)N)NC(=O)CNC(=O)[C@H](CCCN=C(N)N)NC(=O)[C@@H](NC(=O)[C@H](CC(C)C)NC(=O)[C@H](Cc1c[nH]c2ccccc12)NC(=O)[C@H](C)NC(=O)[C@@H](NC(=O)[C@H](Cc1ccccc1)NC(=O)[C@H](CCC(=O)O)NC(=O)[C@H](CCCN=C(N)N)NC(=O)[C@H](C)NC(=O)[C@H](C)NC(=O)[C@H](CCC(N)=O)NC(=O)CNC(=O)[C@H](CCC(=O)O)NC(=O)[C@H](CC(C)C)NC(=O)[C@H](Cc1ccc(O)cc1)NC(=O)[C@H](CO)NC(=O)[C@H](CO)NC(=O)[C@@H](NC(=O)[C@H](CC(=O)O)NC(=O)[C@H](CO)NC(=O)[C@@H](NC(=O)[C@H](Cc1ccccc1)NC(=O)[C@@H](NC(=O)CNC(=O)[C@H](CCC(=O)O)NC(=O)[C@H](C)NC(=O)[C@@H](N)Cc1c[nH]cn1)[C@@H](C)O)[C@@H](C)O)C(C)C)[C@@H](C)CC)C(C)C)C(=O)O)C(=O)O (stereo not given in full)
0.687 nM	CCCCCCCCCCCCCCCC(=O)NC(CCC(=O)NCCCC[C@H](NC(=O)[C@H](C)NC(=O)[C@H](C)NC(=O)[C@H](CCC(N)=O)NC(=O)CNC(=O)[C@H](CCC(=O)O)NC(=O)[C@H](CC(C)C)NC(=O)[C@H](Cc1ccc(O)cc1)NC(=O)[C@H](CO)NC(=O)[C@H](CO)NC(=O)[C@@H](NC(=O)[C@H](CC(=O)O)NC(=O)[C@H](CO)NC(=O)[C@@H](NC(=O)[C@H](Cc1ccccc1)NC(=O)[C@@H](NC(=O)CNC(=O)[C@H](CCC(=O)O)NC(=O)[C@H](C)NC(=O)CCc1c[nH]cn1)[C@@H](C)O)[C@@H](C)O)C(C)C)C(=O)N[C@@H](CCC(=O)O)C(=O)N[C@@H](Cc1ccccc1)C(=O)N[C@H](C(=O)N[C@@H](C)C(=O)N[C@@H](Cc1c[nH]c2ccccc12)C(=O)N[C@@H](CC(C)C)C(=O)N[C@H](C(=O)N[C@@H](CCCN=C(N)N)C(=O)NCC(=O)N[C@@H](CCCN=C(N)N)C(=O)NCC(=O)O)C(C)C)[C@@H](C)CC)C(=O)O (stereo not given in full)
0.0056 nM	CCCCCCCCCC(CCCCC(=O)NCCCCC(NC(=O)CNC(=O)[C@H](CCCN=C(N)N)NC(=O)CNC(=O)[C@H](CCCN=C(N)N)NC(=O)[C@@H](NC(=O)[C@H](CC(C)C)NC(=O)[C@H](Cc1c[nH]c2ccccc12)NC(=O)[C@H](C)NC(=O)[C@@H](NC(=O)[C@H](Cc1ccccc1)NC(=O)[C@H](CCC(=O)O)NC(=O)[C@H](CCCN=C(N)N)NC(=O)[C@H](C)NC(=O)[C@H](C)NC(=O)[C@H](CCC(N)=O)NC(=O)CNC(=O)[C@H](CCC(=O)O)NC(=O)[C@H](CC(C)C)NC(=O)[C@H](Cc1ccc(O)cc1)NC(=O)[C@H](CO)NC(=O)[C@H](CO)NC(=O)[C@@H](NC(=O)[C@H](CC(=O)O)NC(=O)[C@H](CO)NC(=O)[C@@H](NC(=O)[C@H](Cc1ccccc1)NC(=O)[C@@H](NC(=O)CNC(=O)[C@H](CCC(=O)O)NC(=O)[C@H](C)NC(=O)[C@@H](N)Cc1c[nH]cn1)[C@@H](C)O)[C@@H](C)O)C(C)C)[C@@H](C)CC)C(C)C)C(=O)O)C(=O)O (stereo not given in full)
0.236 nM	CCCCCCCC(=O)NCCCC[C@H](NC(=O)[C@@H](NC(=O)[C@H](CC(C)C)NC(=O)[C@H](Cc1c[nH]c2ccccc12)NC(=O)[C@H](C)NC(=O)[C@@H](NC(=O)[C@H](Cc1ccccc1)NC(=O)[C@H](CCC(=O)O)NC(=O)[C@H](CCCN=C(N)N)NC(=O)[C@H](C)NC(=O)[C@H](C)NC(=O)[C@H](CCC(N)=O)NC(=O)CNC(=O)[C@H](CCC(=O)O)NC(=O)[C@H](CC(C)C)NC(=O)[C@H](Cc1ccc(O)cc1)NC(=O)[C@H](CO)NC(=O)[C@H](CO)NC(=O)[C@@H](NC(=O)[C@H](CC(=O)O)NC(=O)[C@H](CO)NC(=O)[C@@H](NC(=O)[C@H](Cc1ccccc1)NC(=O)[C@@H](NC(=O)CNC(=O)[C@H](CCC(=O)O)NC(=O)[C@H](C)NC(=O)CCc1c[nH]cn1)[C@@H](C)O)[C@@H](C)O)C(C)C)[C@@H](C)CC)C(C)C)C(=O)NCC(=O)N[C@@H](CCCN=C(N)N)C(=O)NCC(=O)O (Desaminohistidyl-AEGTFTSDVSSYLEGQAAREFIAWLVK(Octanoyl)GRG-OH)
0.169 nM	CCCCCCCC(=O)NC(CCC(=O)NCCCC[C@H](NC(=O)[C@@H](NC(=O)[C@H](CC(C)C)NC(=O)[C@H](Cc1c[nH]c2ccccc12)NC(=O)[C@H](C)NC(=O)[C@@H](NC(=O)[C@H](Cc1ccccc1)NC(=O)[C@H](CCC(=O)O)NC(=O)[C@H](CCCN=C(N)N)NC(=O)[C@H](C)NC(=O)[C@H](C)NC(=O)[C@H](CCC(N)=O)NC(=O)CNC(=O)[C@H](CCC(=O)O)NC(=O)[C@H](CC(C)C)NC(=O)[C@H](Cc1ccc(O)cc1)NC(=O)[C@H](CO)NC(=O)[C@H](CO)NC(=O)[C@@H](NC(=O)[C@H](CC(=O)O)NC(=O)[C@H](CO)NC(=O)[C@@H](NC(=O)[C@H](Cc1ccccc1)NC(=O)[C@@H](NC(=O)CNC(=O)[C@H](CCC(=O)O)NC(=O)[C@H](C)NC(=O)CCc1c[nH]cn1)[C@@H](C)O)[C@@H](C)O)C(C)C)[C@@H](C)CC)C(C)C)C(=O)NCC(=O)N[C@@H](CCCN=C(N)N)C(=O)NCC(=O)O)C(=O)O (stereo not given in full) (Desaminohistidyl-AEGTFTSDVSSYLEGQAAREFIAWLVK([ξγGlu-Octanoyl])GRG-OH)
2.36 nM	CCCCCCCCCCCCCCCC(=O)NC(CCC(=O)NCCCC[C@H](NC(=O)[C@@H](NC(=O)[C@H](CC(C)C)NC(=O)[C@H](Cc1c[nH]c2ccccc12)NC(=O)[C@H](C)NC(=O)[C@@H](NC(=O)[C@H](Cc1ccccc1)NC(=O)[C@H](CCC(=O)O)NC(=O)[C@H](CCCN=C(N)N)NC(=O)[C@H](C)NC(=O)[C@H](C)NC(=O)[C@H](CCC(N)=O)NC(=O)CNC(=O)[C@H](CCC(=O)O)NC(=O)[C@H](CC(C)C)NC(=O)[C@H](Cc1ccc(O)cc1)NC(=O)[C@H](CO)NC(=O)[C@H](CO)NC(=O)[C@@H](NC(=O)[C@H](CC(=O)O)NC(=O)[C@H](CO)NC(=O)[C@@H](NC(=O)[C@H](Cc1ccccc1)NC(=O)[C@@H](NC(=O)CNC(=O)[C@H](CCC(=O)O)NC(=O)[C@H](C)NC(=O)CCc1c[nH]cn1)[C@@H](C)O)[C@@H](C)O)C(C)C)[C@@H](C)CC)C(C)C)C(=O)NCC(=O)N[C@@H](CCCN=C(N)N)C(=O)NCC(=O)O)C(=O)O (stereo not given in full) (Desaminohistidyl-AEGTFTSDVSSYLEGQAAREFIAWLVK([ξγGlu-Palmitoyl])GRG-OH)
0.0352 nM	CCCCCCCCCCCCCCCC(=O)NC(CCC(=O)NCCCC[C@H](NC(=O)[C@H](CO)NC(=O)[C@@H](NC(=O)[C@H](CC(=O)O)NC(=O)[C@H](CO)NC(=O)[C@@H](NC(=O)[C@H](Cc1ccccc1)NC(=O)[C@@H](NC(=O)CNC(=O)[C@H](CCC(=O)O)NC(=O)[C@H](C)NC(=O)[C@@H](N)Cc1c[nH]cn1)[C@@H](C)O)[C@@H](C)O)C(C)C)C(=O)N[C@@H](Cc1ccc(O)cc1)C(=O)N[C@@H](CC(C)C)C(=O)N[C@@H](CCC(=O)O)C(=O)NCC(=O)N[C@@H](CCC(N)=O)C(=O)N[C@@H](C)C(=O)N[C@@H](C)C(=O)N[C@@H](CCCN=C(N)N)C(=O)N[C@@H](CCC(=O)O)C(=O)N[C@@H](Cc1ccccc1)C(=O)N[C@H](C(=O)N[C@@H](C)C(=O)N[C@@H](Cc1c[nH]c2ccccc12)C(=O)N[C@@H](CC(C)C)C(=O)N[C@H](C(=O)N[C@@H](CCCN=C(N)N)C(=O)NCC(=O)N[C@@H](CCCN=C(N)N)C(=O)NCC(=O)O)C(C)C)[C@@H](C)CC)C(=O)O (stereo not given in full) (H-HAEGTFTSDVSK([ξγGlu-Palmitoyl])YLEGQAAREFIAWLVRGRG-OH)

Source: ChEMBL document CHEMBL1133591, “Potent derivatives of glucagon-like peptide-1 with pharmacokinetic properties suitable for once daily administration” (J Med Chem, 2000)
